According to patent EP2605769B1, “BENZOQUINONE DERIVATIVES FOR THE TREATMENT OF MITCHONDRIAL EYE DISEASES” (Santhera Pharmaceuticals (Schweiz) AG, priority 2010, dated 2012):

How the values were obtained:
[1] = system: Primary human fibroblasts C4 (GM04545, Coriell); assay: Lipid peroxidation assay (BODIPY 581/591-C11); type: cell-based; details: 10 µM test compound, 72 hours
Description: Lipid peroxidation is a well defined mechanism of cellular damage in both animals and plants that occurs during aging and in some disease states. This process proceeds by a free radical chain reaction mechanism. […] If not terminated fast enough, lipid peroxidation damages cellular membranes, affect membrane fluidity and also mitochondrial function. In addition, end products of lipid peroxidation may be mutagenic and carcinogenic. For instance, the reactive end product of lipid peroxidation, malondialdehyde, directly causes DNA damage. Experimental Procedure: […] BODIPY 581/591-C11 can be used to measure antioxidant activity in lipid environments by exploiting its loss of fluorescence upon interaction with peroxyl radicals. […] After that, 0.1 ml freshly prepared dye solution (HBSS, containing BODIPY dye 1:1000 from stock solution) was added and cells were returned to the incubator for 30 min. After 2 brief washes with 0.1 ml warmed PBS fluorescence was measured in 50 µl PBS. Fluorescence for 4 individual areas per well were individually quantified at two wavelengths (Ex1: 490, Em1: 600; Ex2: 490, Em2: 530, bandwith 10nm, 50 flashes, 400Hz frequency, 20 µs integration time).

Complex II-III = assay: Measurement of mitochondrial complex II activity (SURFE2R CII-CIII assay); type: biochemical; details: test compound ~4 µM, peak current normalized
Description: Complex II (CII) is an enzyme complex bound to the matrix face of the inner mitochondrial membranes. It consists of four subunits with several different enzymatic activities. One of these is the citric acid-cycle enzyme succinate dehydrogenase, which catalyzes the conversion from succinate to fumarate. In this reaction electrons are transferred from succinate to the prosthetic group FAD thus generating FADH2 ([…] 2000). These electrons are then transferred from the reduced FADH2 to ubiquinone, from ubiquinone to the reaction centers of complex III (CIII), and finally to the cytochrome c. During this electron translocation process, complex III pumps four protons from matrix to the intermembrane space. These proton fluxes can be detected as electrical currents on SSM-based SURFE2R sensors (http://www.sd-heidelberg.de/index.html). In the SURFE2R CII-CIII assay, both, CII and CIII are activated simultaneously by first equilibrating the sensors with succinate and then activating the CII-CIII reaction by oxidized cytochrome c. The resulting efflux of protons out from the membrane compartment induces negative currents, which are sensitive to the CII and CIII inhibitors malonate and antimycin A, respectively. Experimental Procedure: SURFE2R SSM sensors were coated with inner mitochondrial membranes according to the standard protocols. Briefly, sensors were filled with 50 μL of SensorPrep A solution and incubated for 10-15 min. […] The biosensors were thawed immediately before the experiment and measured with the SURFE2R Workstation 50 or 500 devices. […] For the activity of CII-III, the peak current (current amplitude) was evaluated. […] Afterwards, a test compound (~4 μM) was supplied to the non-activating and the activating solutions and the CII-III activity was recorded for further ~50 min (110 min in total). […] For those test compounds, which activated CII-III by more than 30% at time 80 to 110 min, the CII-CIII activity was recorded for additional ~50 min (up to 160 min in total).

SMILES | Lipid peroxidation [1] [%] | Complex II-III activity (Complex II-III) [%]
COC1=C(OC)C(=O)C(CCCCCCCCCC(C)(C)O)=C(C)C1=O [Compound IC] | 92 | 97
COC1=C(OC)C(=O)C(CCCCCCCCCCO)=C(C)C1=O [Compound IA, Idebenone] | 98 | 102
CCCCCCCCCCCC1=C(O)C(=O)C=C(O)C1=O [Compound IE, Embelin] | 110 | 110
